Laboratory results: ChEMBL document CHEMBL4507288 (2021)
Active and inactive are the calls of the source. No cut-off for these calls is given here.

How the values were obtained:
[1] = biological target: GABA-A receptor; anion channel (Rattus norvegicus) (UniProt O09028+P15431+P18506+P18508+P19969+P20236+P23574+P23576+P28471+P28473+P30191+P62813+P63079+P63138+Q91ZM7+Q9ES14); conditions: Compound concentration 10.0 uM
[2] = biological target: Alpha-2C adrenergic receptor (Homo sapiens) (UniProt P18825); conditions: Compound concentration 10.0 uM
[3] = biological target: Ephrin type-B receptor 2 (Homo sapiens) (UniProt P29323); conditions: Compound concentration 1000.0 nM
[4] = biological target: Sigma intracellular receptor 2 (Homo sapiens, UniProt Q5BJF2); conditions: Compound concentration 10.0 uM
D(2) dopamine receptor = D(2) dopamine receptor (Homo sapiens, UniProt P14416); conditions: Compound concentration 10.0 uM
Sequence of D(2) dopamine receptor (P14416 whole entry): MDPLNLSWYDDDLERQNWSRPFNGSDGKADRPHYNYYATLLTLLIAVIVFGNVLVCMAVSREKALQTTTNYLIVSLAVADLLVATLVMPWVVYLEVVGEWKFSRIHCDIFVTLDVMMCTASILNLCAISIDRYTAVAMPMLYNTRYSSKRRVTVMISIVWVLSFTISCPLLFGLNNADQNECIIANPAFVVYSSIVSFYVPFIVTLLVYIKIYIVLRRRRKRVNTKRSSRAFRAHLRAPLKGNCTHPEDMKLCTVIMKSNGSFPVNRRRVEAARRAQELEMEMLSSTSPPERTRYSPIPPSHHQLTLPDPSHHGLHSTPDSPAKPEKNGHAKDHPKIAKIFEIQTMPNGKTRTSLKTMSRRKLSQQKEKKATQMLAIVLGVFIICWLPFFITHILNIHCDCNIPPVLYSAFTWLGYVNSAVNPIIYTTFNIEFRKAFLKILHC

[5] = biological target: Dual specificity tyrosine-phosphorylation-regulated kinase 1B (Homo sapiens) (UniProt Q9Y463); conditions: Compound concentration 1000.0 nM
[6] = biological target: Delta-type opioid receptor (Homo sapiens) (UniProt P41143); conditions: Compound concentration 10.0 uM
[7] = biological target: Sodium-dependent dopamine transporter (Homo sapiens, UniProt Q01959); conditions: Compound concentration 10.0 uM
[8] = biological target: ALK tyrosine kinase receptor (Homo sapiens) (UniProt Q9UM73); conditions: Compound concentration 1000.0 nM
[9] = biological target: 5-hydroxytryptamine receptor 7 (Homo sapiens, UniProt P34969); conditions: Compound concentration 10.0 uM
[10] = biological target: Amyloid-beta precursor protein (Homo sapiens, UniProt P05067); experiment: Aβ40 inhibition assay
Sequence of Amyloid-beta precursor protein (P05067 whole entry): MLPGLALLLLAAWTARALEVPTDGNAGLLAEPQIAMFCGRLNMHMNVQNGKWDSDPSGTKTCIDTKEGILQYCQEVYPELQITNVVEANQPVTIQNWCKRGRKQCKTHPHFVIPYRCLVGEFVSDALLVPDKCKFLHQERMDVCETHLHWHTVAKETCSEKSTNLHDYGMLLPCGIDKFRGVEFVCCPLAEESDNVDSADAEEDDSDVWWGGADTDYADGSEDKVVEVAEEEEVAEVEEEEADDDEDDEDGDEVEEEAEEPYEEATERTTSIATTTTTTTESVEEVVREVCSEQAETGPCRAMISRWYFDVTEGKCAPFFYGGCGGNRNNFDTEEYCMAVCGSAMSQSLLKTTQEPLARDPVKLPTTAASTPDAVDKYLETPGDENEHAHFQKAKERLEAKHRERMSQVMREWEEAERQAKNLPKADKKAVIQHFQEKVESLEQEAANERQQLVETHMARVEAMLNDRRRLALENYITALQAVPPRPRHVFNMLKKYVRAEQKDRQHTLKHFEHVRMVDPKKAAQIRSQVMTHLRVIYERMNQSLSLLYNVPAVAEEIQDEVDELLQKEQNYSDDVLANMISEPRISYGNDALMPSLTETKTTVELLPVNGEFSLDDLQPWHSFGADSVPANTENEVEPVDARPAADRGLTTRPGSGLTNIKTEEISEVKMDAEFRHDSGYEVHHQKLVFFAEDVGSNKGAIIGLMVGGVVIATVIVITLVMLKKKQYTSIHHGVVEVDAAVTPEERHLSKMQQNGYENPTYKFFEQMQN

[11] = biological target: Alpha-2B adrenergic receptor (Homo sapiens) (UniProt P18089); conditions: Compound concentration 10.0 uM
[12] = biological target: Serine/threonine-protein kinase DCLK3 (Homo sapiens) (UniProt Q9C098); conditions: Compound concentration 1000.0 nM
[13] = biological target: Mu-type opioid receptor (Homo sapiens) (UniProt P35372); conditions: Compound concentration 10.0 uM
[14] = biological target: Serine/threonine-protein kinase ICK (Homo sapiens) (UniProt Q9UPZ9); conditions: Compound concentration 1000.0 nM
[15] = biological target: Beta-3 adrenergic receptor (Homo sapiens) (UniProt P13945); conditions: Compound concentration 10.0 uM
Sequence of Beta-3 adrenergic receptor (Homo sapiens) (P13945 whole entry, looked up): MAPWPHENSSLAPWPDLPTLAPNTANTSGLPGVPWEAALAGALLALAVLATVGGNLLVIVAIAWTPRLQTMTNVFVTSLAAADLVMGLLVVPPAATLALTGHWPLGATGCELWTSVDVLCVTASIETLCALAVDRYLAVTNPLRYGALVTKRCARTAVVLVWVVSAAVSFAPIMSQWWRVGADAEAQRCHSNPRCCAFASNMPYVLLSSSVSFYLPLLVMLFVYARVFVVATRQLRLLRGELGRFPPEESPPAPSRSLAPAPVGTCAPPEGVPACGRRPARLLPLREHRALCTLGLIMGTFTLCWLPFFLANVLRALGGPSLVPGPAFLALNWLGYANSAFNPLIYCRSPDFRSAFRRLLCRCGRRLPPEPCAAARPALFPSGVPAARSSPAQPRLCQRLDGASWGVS

[16] = biological target: Sodium-dependent serotonin transporter (Homo sapiens) (UniProt P31645); conditions: Compound concentration 10.0 uM
[17] = biological target: Muscarinic acetylcholine receptor M2 (Homo sapiens) (UniProt P08172); conditions: Compound concentration 10.0 uM
Sequence of Muscarinic acetylcholine receptor M2 (Homo sapiens) (P08172 whole entry): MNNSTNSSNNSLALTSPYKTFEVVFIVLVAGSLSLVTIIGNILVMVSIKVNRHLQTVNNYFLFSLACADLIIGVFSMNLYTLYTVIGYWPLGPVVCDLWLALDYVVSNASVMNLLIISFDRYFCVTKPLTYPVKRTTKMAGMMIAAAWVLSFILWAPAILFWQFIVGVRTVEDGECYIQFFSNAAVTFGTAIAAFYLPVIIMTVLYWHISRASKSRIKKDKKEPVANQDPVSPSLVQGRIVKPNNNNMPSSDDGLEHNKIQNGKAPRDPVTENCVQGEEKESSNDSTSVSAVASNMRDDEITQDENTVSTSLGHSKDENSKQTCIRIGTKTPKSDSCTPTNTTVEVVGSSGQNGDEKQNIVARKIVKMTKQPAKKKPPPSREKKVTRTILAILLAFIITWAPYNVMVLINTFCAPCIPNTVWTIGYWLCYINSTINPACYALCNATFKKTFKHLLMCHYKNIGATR

[18] = biological target: Alpha-1D adrenergic receptor (Homo sapiens) (UniProt P25100); conditions: Compound concentration 10.0 uM
[19] = biological target: 5-hydroxytryptamine receptor 1D (Homo sapiens, UniProt P28221); conditions: Compound concentration 10.0 uM
[20] = biological target: Myosin light chain kinase 2, skeletal/cardiac muscle (Homo sapiens) (UniProt Q9H1R3); conditions: Compound concentration 1000.0 nM
[21] = biological target: 5-hydroxytryptamine receptor 3A (Homo sapiens) (UniProt P46098); conditions: Compound concentration 10.0 uM
[22] = biological target: Alpha-2A adrenergic receptor (Homo sapiens) (UniProt P08913); conditions: Compound concentration 10.0 uM
[23] = biological target: Sodium-dependent noradrenaline transporter (Homo sapiens, UniProt P23975); conditions: Compound concentration 10.0 uM
[24] = biological target: 5-hydroxytryptamine receptor 5A (Homo sapiens) (UniProt P47898); conditions: Compound concentration 10.0 uM
Sequence of 5-hydroxytryptamine receptor 5A (Homo sapiens) (P47898 whole entry): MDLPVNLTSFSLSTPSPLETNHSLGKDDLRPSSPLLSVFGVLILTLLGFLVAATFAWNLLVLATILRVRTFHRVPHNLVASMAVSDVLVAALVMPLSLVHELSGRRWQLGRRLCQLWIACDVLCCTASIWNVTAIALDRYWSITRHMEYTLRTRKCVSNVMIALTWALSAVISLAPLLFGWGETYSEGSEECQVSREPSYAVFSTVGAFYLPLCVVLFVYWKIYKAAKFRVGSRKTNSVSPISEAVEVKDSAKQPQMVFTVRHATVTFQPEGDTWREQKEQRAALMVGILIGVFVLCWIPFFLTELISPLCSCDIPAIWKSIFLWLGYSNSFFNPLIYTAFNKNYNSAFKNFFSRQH

[25] = biological target: Histamine H1 receptor (Homo sapiens) (UniProt P35367); conditions: Compound concentration 10.0 uM
[26] = biological target: 5-hydroxytryptamine receptor 1B (Homo sapiens, UniProt P28222); conditions: Compound concentration 10.0 uM
[27] = biological target: SRSF protein kinase 3 (Homo sapiens) (UniProt Q9UPE1); conditions: Compound concentration 1000.0 nM
[28] = biological target: D(1A) dopamine receptor (Homo sapiens) (UniProt P21728); conditions: Compound concentration 10.0 uM
[29] = biological target: Alpha-1A adrenergic receptor (Homo sapiens) (UniProt P35348); conditions: Compound concentration 10.0 uM
[30] = biological target: Kappa-type opioid receptor (Homo sapiens, UniProt P41145); conditions: Compound concentration 10.0 uM
Sequence of Kappa-type opioid receptor (P41145 whole entry): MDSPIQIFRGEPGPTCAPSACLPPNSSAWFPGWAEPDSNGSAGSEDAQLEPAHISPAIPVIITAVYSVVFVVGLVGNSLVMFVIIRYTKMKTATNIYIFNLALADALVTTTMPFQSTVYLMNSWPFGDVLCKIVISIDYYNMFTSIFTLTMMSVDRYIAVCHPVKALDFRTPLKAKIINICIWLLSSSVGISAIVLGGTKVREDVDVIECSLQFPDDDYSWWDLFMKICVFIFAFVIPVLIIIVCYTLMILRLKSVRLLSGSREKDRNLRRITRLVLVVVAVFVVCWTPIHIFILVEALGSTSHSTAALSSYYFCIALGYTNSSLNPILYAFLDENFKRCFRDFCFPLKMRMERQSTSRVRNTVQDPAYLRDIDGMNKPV

[31] = biological target: 5-hydroxytryptamine receptor 1A (Homo sapiens) (UniProt P08908); conditions: Compound concentration 10.0 uM
[32] = biological target: Histamine H3 receptor (Homo sapiens) (UniProt Q9Y5N1); conditions: Compound concentration 10.0 uM
[33] = biological target: 5-hydroxytryptamine receptor 6 (Homo sapiens) (UniProt P50406); conditions: Compound concentration 10.0 uM
[34] = biological target: D(1B) dopamine receptor (Homo sapiens) (UniProt P21918); conditions: Compound concentration 10.0 uM
Sequence of D(1B) dopamine receptor (Homo sapiens) (P21918 whole entry): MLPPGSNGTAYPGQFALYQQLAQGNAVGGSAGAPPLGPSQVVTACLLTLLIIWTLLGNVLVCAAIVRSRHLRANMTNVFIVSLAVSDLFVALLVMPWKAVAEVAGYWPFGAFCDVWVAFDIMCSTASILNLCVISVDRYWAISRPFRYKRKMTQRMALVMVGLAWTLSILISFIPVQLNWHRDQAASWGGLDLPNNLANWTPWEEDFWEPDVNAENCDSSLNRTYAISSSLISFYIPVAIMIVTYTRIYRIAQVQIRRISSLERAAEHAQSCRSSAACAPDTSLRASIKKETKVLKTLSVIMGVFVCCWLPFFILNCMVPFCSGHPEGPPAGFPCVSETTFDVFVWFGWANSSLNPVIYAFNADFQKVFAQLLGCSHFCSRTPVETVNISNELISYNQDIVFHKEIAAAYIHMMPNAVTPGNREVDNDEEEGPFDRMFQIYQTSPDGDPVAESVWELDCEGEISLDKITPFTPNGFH

[35] = biological target: High affinity nerve growth factor receptor (Homo sapiens) (UniProt P04629); conditions: Compound concentration 1000.0 nM
[36] = biological target: Sigma non-opioid intracellular receptor 1 (Homo sapiens, UniProt Q99720); conditions: Compound concentration 10.0 uM
Sequence of Sigma non-opioid intracellular receptor 1 (Q99720 whole entry): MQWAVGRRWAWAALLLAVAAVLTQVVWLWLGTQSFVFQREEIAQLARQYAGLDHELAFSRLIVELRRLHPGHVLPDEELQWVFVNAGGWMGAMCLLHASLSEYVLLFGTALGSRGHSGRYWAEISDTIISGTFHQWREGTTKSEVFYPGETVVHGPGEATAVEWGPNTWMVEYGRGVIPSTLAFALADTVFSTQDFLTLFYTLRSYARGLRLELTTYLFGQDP

[37] = biological target: 5-hydroxytryptamine receptor 2A (Homo sapiens, UniProt P28223); conditions: Compound concentration 10.0 uM
[38] = biological target: Alpha-1B adrenergic receptor (Homo sapiens) (UniProt P35368); conditions: Compound concentration 10.0 uM
Sequence of Alpha-1B adrenergic receptor (Homo sapiens) (P35368 whole entry): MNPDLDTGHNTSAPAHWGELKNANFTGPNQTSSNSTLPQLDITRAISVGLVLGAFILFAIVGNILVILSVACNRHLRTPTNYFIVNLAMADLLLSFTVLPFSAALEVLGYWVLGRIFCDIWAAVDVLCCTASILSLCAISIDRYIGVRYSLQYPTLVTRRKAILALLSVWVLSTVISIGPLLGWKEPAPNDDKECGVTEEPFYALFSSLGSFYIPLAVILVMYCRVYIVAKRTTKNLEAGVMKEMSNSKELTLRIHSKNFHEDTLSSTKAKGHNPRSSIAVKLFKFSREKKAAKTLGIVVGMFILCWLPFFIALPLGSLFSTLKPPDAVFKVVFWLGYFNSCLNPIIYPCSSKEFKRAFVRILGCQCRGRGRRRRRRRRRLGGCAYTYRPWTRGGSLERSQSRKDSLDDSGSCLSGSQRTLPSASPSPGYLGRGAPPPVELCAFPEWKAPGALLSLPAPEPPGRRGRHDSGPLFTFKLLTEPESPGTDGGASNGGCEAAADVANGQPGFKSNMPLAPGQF

[39] = biological target: D(4) dopamine receptor (Homo sapiens) (UniProt P21917); conditions: Compound concentration 10.0 uM
[40] = biological target: Muscarinic acetylcholine receptor M1 (Homo sapiens) (UniProt P11229); conditions: Compound concentration 10.0 uM
[41] = biological target: 5-hydroxytryptamine receptor 2B (Homo sapiens, UniProt P41595); conditions: Compound concentration 10.0 uM
Sequence of 5-hydroxytryptamine receptor 2B (P41595 whole entry): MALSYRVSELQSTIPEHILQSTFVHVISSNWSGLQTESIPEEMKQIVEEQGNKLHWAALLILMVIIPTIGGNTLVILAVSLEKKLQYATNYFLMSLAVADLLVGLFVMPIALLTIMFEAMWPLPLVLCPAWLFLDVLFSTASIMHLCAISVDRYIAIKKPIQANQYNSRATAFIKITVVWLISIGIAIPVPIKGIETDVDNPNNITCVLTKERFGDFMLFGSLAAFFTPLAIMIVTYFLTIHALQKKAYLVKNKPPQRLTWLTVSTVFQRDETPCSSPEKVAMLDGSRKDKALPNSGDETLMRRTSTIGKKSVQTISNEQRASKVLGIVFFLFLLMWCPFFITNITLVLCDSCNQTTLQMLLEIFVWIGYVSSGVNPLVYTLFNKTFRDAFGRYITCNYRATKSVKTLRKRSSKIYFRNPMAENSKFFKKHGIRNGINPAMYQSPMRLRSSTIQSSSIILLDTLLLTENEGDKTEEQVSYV

[42] = biological target: 5-hydroxytryptamine receptor 2C (Homo sapiens) (UniProt P28335); conditions: Compound concentration 10.0 uM
[43] = biological target: Muscarinic acetylcholine receptor M5 (Homo sapiens) (UniProt P08912); conditions: Compound concentration 10.0 uM
D(3) dopamine receptor = D(3) dopamine receptor (Homo sapiens, UniProt P35462); conditions: Compound concentration 10.0 uM
Sequence of D(3) dopamine receptor (P35462 whole entry): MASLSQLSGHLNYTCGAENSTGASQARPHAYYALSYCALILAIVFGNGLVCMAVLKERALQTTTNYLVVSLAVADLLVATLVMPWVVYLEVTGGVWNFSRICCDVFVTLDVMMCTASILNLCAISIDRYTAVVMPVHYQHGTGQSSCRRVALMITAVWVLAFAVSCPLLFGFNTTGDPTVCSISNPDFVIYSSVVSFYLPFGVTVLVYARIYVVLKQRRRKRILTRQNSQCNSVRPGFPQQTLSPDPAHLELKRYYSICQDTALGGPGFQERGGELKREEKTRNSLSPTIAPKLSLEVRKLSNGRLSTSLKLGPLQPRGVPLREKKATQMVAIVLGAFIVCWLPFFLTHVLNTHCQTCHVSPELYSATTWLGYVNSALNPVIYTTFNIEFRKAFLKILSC

[44] = biological target: Muscarinic acetylcholine receptor M4 (Homo sapiens) (UniProt P08173); conditions: Compound concentration 10.0 uM

Compound: O=S(=O)(NC1CCC(c2cc(F)ccc2F)(S(=O)(=O)c2ccc(Cl)cc2)CC1)C(F)(F)F (centres undefined) [MRK-560]
- inhibition [1]: 28.6%
- inhibition [2]: 18.2%
- residual activity [3]: 100%
- inhibition [4]: 25.2%
- inhibition (D(2) dopamine receptor): 11.4%
- residual activity [5]: 100%
- inhibition [6]: 20%
- inhibition [7]: 75.1%
- residual activity [8]: 100%
- inhibition [9]: -5.02%
- IC50 [10]: < 0.0005 µM (active)
- inhibition [11]: -2.13%
- residual activity [12]: 100%
- inhibition [13]: 20%
- residual activity [14]: 85%
- inhibition [15]: 13.5%
- inhibition [16]: -3.67%
- inhibition [17]: -0.654%
- inhibition [18]: 0.882%
- inhibition [19]: 13.9%
- residual activity [20]: 91%
- inhibition [21]: -8.12%
- inhibition [22]: 8.45%
- inhibition [23]: 7.49%
- inhibition [24]: -5.05%
- inhibition [25]: 20.3%
- inhibition [26]: 15.4%
- residual activity [27]: 100%
- inhibition [28]: 17.4%
- inhibition [29]: 9.88%
- inhibition [30]: 24.6%
- inhibition [31]: 18.3%
- inhibition [32]: 14.2%
- inhibition [33]: 12.3%
- inhibition [34]: 11.3%
- residual activity [35]: 76%
- inhibition [36]: 36.8%
- inhibition [37]: 31.2%
- inhibition [38]: -5.22%
- inhibition [39]: 20.1%
- inhibition [40]: -5.38%
- inhibition [41]: 4.74%
- inhibition [42]: 12.3%
- inhibition [43]: 1.96%
- inhibition (D(3) dopamine receptor): 21.7%
- inhibition [44]: 18.9%

Compound: CC(C)(C)OC(=O)N1CCCC1CNC1CCC(c2cc(F)ccc2F)(S(=O)(=O)c2ccc(Cl)cc2)CC1 (centres undefined) [GSI-NC]
- inhibition [1]: 14.6%
- inhibition [2]: 81.4%
- inhibition [4]: 83.4%
- inhibition (D(2) dopamine receptor): 83%
- inhibition [6]: 21.4%
- inhibition [7]: 95.9%
- inhibition [9]: 70.7%
- IC50 [10]: 1.6 µM (not active)
- inhibition [11]: 77.4%
- inhibition [13]: 49.1%
- inhibition [15]: 25.6%
- inhibition [16]: 6.71%
- inhibition [17]: 9.4%
- inhibition [18]: 22.5%
- inhibition [19]: 61.4%
- inhibition [21]: -5.6%
- inhibition [22]: 82.3%
- inhibition [23]: 50.7%
- inhibition [24]: 35%
- inhibition [25]: 25.6%
- inhibition [26]: 70.4%
- inhibition [28]: 13.8%
- inhibition [29]: 12.4%
- inhibition [30]: 69.8%
- inhibition [31]: 66.3%
- inhibition [32]: 26.9%
- inhibition [33]: 37.1%
- inhibition [34]: 13.1%
- inhibition [36]: 91.6%
- inhibition [37]: 92.2%
- inhibition [38]: 41%
- inhibition [39]: 20.4%
- inhibition [40]: 8.44%
- inhibition [41]: 97.2%
- inhibition [42]: 80.9%
- inhibition [43]: 26.5%
- inhibition (D(3) dopamine receptor): 86.1%
- inhibition [44]: 25.6%
